Reference: ChEMBL document CHEMBL4837181 (Eur J Med Chem, 2020)

Experiments:
[1] = Chemical stability of compound in simulated intestinal fluid assessed as compound remaining at 5 uM measured after 3 hrs by LC-MS/MS analysis; type: ADME, physicochemical; conditions: read-out: Stabilty
[2] = Chemical stability of compound in simulated gastric fluid assessed as compound remaining at 5 uM measured after 1.5 hrs by LC-MS/MS analysis; type: ADME, physicochemical; conditions: read-out: Stabilty
[3] = Drug metabolism in cynomolgus monkey assessed as ratio of indoximod to parent compound at 75 to 375 mg/kg, po BID administered […]; type: ADME, organism-based, Macaca fascicularis; conditions: in vivo, dose 75-375 mg/kg
[4] = AUC (0 to 24 hrs) in female cynomolgus monkey at 75 mg/kg, po BID measured on day 8; type: ADME, organism-based, Macaca fascicularis; parameters: time < 24 hr, route oral, dose 75 mg/kg; conditions: in vivo
[5] = Toxicity in po dosed male rat administered twice a day; type: organism-based; conditions: in vivo
[6] = Toxicity in monkey assessed as change in behavioral parameter; parameters: species or system Macaca mulatta; conditions: rhesus monkey, in vivo
[7] = Oral bioavailability in male cynomolgus monkey at 825 micromol/kg; type: ADME, organism-based, Macaca fascicularis; conditions: in vivo, at 825 µmol/kg
[8] = target: T1, Cytochrome P450 2B6 (Homo sapiens, UniProt P20813); assay: Induction of CYP2B6 in human hepatocytes; type: ADME, cell-based, Hepatocyte
T1 sequence (P20813 whole entry): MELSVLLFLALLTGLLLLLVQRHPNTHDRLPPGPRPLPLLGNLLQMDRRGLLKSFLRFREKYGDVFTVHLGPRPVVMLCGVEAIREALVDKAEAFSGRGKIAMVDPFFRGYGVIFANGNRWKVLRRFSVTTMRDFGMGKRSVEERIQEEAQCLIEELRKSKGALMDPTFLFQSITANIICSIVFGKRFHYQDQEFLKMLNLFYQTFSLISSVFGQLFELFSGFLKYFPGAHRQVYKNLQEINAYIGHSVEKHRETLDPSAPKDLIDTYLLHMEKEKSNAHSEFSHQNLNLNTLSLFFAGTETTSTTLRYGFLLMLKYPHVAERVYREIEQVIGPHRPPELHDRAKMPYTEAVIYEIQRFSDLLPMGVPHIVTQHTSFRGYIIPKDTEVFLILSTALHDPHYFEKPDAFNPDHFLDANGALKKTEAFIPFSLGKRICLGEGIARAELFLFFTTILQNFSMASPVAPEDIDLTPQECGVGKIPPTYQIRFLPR

[9] = Protein binding in human plasma; type: ADME, cell-free; conditions: read-out: PPB
[10] = Solubility of the compound in buffer at pH 1.58 to 6.7; type: physicochemical
[11] = target: Cytochrome P450 2D6 (Homo sapiens, UniProt P10635); assay: Inhibition of CYP2D6 in human hepatocytes; type: ADME, cell-based, Hepatocyte
Cytochrome P450 2D6, sequence (P10635 whole entry): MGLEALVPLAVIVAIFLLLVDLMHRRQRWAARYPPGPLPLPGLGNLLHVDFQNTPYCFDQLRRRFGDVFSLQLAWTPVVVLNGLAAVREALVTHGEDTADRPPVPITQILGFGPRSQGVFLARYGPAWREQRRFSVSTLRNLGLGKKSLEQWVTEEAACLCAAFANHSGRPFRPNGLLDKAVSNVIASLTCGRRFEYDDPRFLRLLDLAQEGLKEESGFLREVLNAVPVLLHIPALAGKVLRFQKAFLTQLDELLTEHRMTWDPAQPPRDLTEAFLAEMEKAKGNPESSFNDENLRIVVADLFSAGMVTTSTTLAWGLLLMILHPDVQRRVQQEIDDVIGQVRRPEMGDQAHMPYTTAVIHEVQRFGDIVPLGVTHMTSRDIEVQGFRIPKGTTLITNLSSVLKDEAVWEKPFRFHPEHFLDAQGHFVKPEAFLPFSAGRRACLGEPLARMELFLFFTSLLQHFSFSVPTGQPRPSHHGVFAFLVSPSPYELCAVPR

[12] = Toxicity in rat assessed as mortality at 150 to 180 mg/kg, po; type: organism-based; conditions: in vivo, dose 150-180 mg/kg
[13] = Genotoxicity in monkey; type: toxicity, Macaca mulatta; conditions: rhesus monkey
[14] = Drug metabolism in cynomolgus monkey assessed as formation of M9 metabolite at 15 mg/kg, iv administered as single dose; type: ADME, organism-based, Macaca fascicularis; conditions: in vivo
[15] = Toxicity in cynomolgus monkey assessed as NOAEL at 150 mg/kg, po BID administered for 28 days; type: organism-based, Macaca fascicularis; conditions: in vivo, time 28 day
[16] = Drug metabolism in rats assessed as ratio of indoximod to parent compound at 20 to 900 mg/kg, po administered as single dose; type: ADME, organism-based; conditions: rat, in vivo, dose 20-900 mg/kg
[17] = Drug metabolism in Sprague-Dawley rat hepatocytes assessed as unmetabolized compound at 10 uM incubated for 120 mins by UPLC-QTOF-PDA analysis; type: ADME, cell-based, Hepatocyte; conditions: read-out: Drug metabolism
[18] = Drug metabolism in cynomolgus monkey assessed as formation of M9 metabolite at 75 to 375 mg/kg, po BID; type: ADME, organism-based, Macaca fascicularis; conditions: in vivo, dose 75-375 mg/kg
[19] = Chemical stability of compound in 0.1 N aqueous HCl buffer assessed as compound remaining at pH 1 at 5 uM measured after 24 hrs by LC-MS/MS analysis; type: physicochemical; conditions: pH 1, 24 h
[20] = target: T2, Cytochrome P450 1A2 (Homo sapiens, UniProt P05177); assay: Induction of CYP1A2 in human hepatocytes; type: ADME, cell-based, Hepatocyte
T2 sequence (P05177 whole entry): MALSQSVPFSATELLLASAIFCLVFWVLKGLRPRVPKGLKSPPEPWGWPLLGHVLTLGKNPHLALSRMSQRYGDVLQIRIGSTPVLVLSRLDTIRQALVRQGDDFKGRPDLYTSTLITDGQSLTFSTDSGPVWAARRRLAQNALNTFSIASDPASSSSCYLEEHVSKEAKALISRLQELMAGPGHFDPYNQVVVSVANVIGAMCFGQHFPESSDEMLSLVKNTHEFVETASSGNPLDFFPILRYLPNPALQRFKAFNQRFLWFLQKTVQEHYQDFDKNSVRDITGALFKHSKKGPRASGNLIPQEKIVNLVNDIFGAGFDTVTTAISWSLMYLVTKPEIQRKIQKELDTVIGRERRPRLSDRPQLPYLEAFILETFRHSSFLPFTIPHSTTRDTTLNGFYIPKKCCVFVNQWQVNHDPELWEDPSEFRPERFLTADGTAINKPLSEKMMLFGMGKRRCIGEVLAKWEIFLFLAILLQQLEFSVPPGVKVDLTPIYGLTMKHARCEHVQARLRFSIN

[21] = Apparent oral clearance in male cynomolgus monkey at 75 mg/kg, po BID measured on day 8; type: ADME, organism-based, Macaca fascicularis; conditions: in vivo
[22] = target: T1, Cytochrome P450 2B6; assay: Inhibition of CYP2B6 in human hepatocytes; type: ADME, cell-based, Hepatocyte
[23] = Protein binding in Beagle dog plasma; type: ADME, cell-free, Canis lupus familiaris; conditions: read-out: PPB
[24] = Apparent oral clearance in male cynomolgus monkey at 150 mg/kg, po BID measured on day 8; type: ADME, organism-based, Macaca fascicularis; conditions: in vivo
[25] = AUC (0 to 24 hrs) in female cynomolgus monkey at 15 mg/kg, iv measured on day 1; type: ADME, organism-based, Macaca fascicularis; parameters: time < 24 hr, route intravenous, dose 15 mg/kg; conditions: in vivo
[26] = Apparent oral clearance in female cynomolgus monkey at 225 mg/kg, po measured on day 1; type: ADME, organism-based, Macaca fascicularis; conditions: in vivo
[27] = AUC (0 to infinity) in human up to 1200 mg administered bid; type: ADME; parameters: time infinity, dose <=1200
[28] = Dose normalized Cmax in rat at 50 mg/kg, po measured upto 72 hrs by LC-MS/MS analysis; type: ADME, organism-based; conditions: in vivo
[29] = Half life in female cynomolgus monkey at 375 mg/kg, po BID measured on day 8; type: ADME, organism-based, Macaca fascicularis; conditions: in vivo
[30] = Apparent oral clearance in male cynomolgus monkey at 75 mg/kg, po measured on day 1; type: ADME, organism-based, Macaca fascicularis; conditions: in vivo
[31] = Half life in rat at 20 to 900 mg/kg, po; type: ADME, organism-based; conditions: in vivo, dose 20-900 mg/kg
[32] = AUC (0 to 24 hrs) in male cynomolgus monkey at 75 mg/kg, po measured on day 1; type: ADME, organism-based, Macaca fascicularis; parameters: time < 24 hr, route oral, dose 75 mg/kg; conditions: in vivo
[33] = Solubility of compound at pH 1; type: physicochemical; conditions: buffer
[34] = Half life in female cynomolgus monkey at 225 mg/kg, po measured on day 1; type: ADME, organism-based, Macaca fascicularis; conditions: in vivo
[35] = Half life in rat; type: ADME; conditions: in vivo
[36] = Cmax in male cynomolgus monkey at 75 mg/kg, po measured on day 1; type: ADME, organism-based, Macaca fascicularis; parameters: route oral, dose 75 mg/kg; conditions: in vivo
[37] = Half life in female cynomolgus monkey at 15 mg/kg, iv measured on day 1; type: ADME, organism-based, Macaca fascicularis; conditions: in vivo
[38] = Change in normalised Cmax in rat at 50 mg/kg, po measured upto 72 hrs by LC-MS/MS analysis; type: ADME, organism-based; conditions: in vivo

**Q.** With `CCOC(=O)[C@@H](Cc1cn(C)c2ccccc12)NC(=O)[C@@H](N)CC(C)C.Cl` as the compound, how does the remaining at 3 h, 5 µM [1] read?
**A.** 91%

**Q.** What about the remaining at 1.5 h, 5 µM [2] of the same compound?
**A.** 92%

**Q.** And the Ratio [3]?
**A.** 690

**Q.** What about the AUC at 24 h [4] of the same compound?
**A.** 0.0356 µM·h

**Q.** What about the TD10 [5] of the same compound?
**A.** 150 mg/kg

**Q.** And the Activity [6]?
**A.** Non-Toxic

**Q.** What about the F [7] of the same compound?
**A.** 6%

**Q.** What about the Activity [8] of the same compound?
**A.** Not Active

**Q.** What about the fraction unbound [9] of the same compound?
**A.** 0.5

**Q.** What about the solubility [10] of the same compound?
**A.** 16.3 mg/mL

**Q.** What about the IC50 [11] of the same compound?
**A.** 19 µM

**Q.** What about the Activity [12] of the same compound?
**A.** Toxic

**Q.** And the Activity [13]?
**A.** Non-Toxic

**Q.** What about the Drug metabolism [14] of the same compound?
**A.** Metabolite_Detected

**Q.** What about the NOAEL at 672 h [15] of the same compound?
**A.** 120 mg/kg

**Q.** What about the Ratio [16] of the same compound?
**A.** > 39000

**Q.** What about the remaining at 2 h, 10 µM [17] of the same compound?
**A.** 0.4%

**Q.** And the Drug metabolism [18]?
**A.** Metabolite_Detected

**Q.** And the Stabilty [19]?
**A.** 87%

**Q.** And the Activity [20]?
**A.** Not Active

**Q.** And the CL/F [21]?
**A.** 25.6 mL/min/kg

**Q.** And the IC50 [22]?
**A.** > 50 µM

**Q.** And the fraction unbound [23]?
**A.** 0.5

**Q.** With `Cn1cc(C[C@@H](N)C(=O)O)c2ccccc21` [INDOXIMOD] as the compound, how does the CL/F [24] read?
**A.** 13.8 mL/min/kg

**Q.** And the AUC(0-t) at 24 h [25]?
**A.** 70.6 µM·h

**Q.** What about the CL/F [26] of the same compound?
**A.** 82.2 mL/min/kg

**Q.** And the AUC(0-inf) [27]?
**A.** 114 µM·h

**Q.** And the Cmax/dose [28]?
**A.** 27 µM

**Q.** And the half-life [29]?
**A.** 3.8 h

**Q.** What about the CL/F [30] of the same compound?
**A.** 16.2 mL/min/kg

**Q.** And the half-life [31]?
**A.** 23 h

**Q.** What about the AUC(0-t) at 24 h [32] of the same compound?
**A.** 223 µM·h

**Q.** What about the solubility [33] of the same compound?
**A.** > 20 mg/mL

**Q.** What about the half-life [34] of the same compound?
**A.** 3.8 h

**Q.** And the half-life [35]?
**A.** 30 h

**Q.** And the Cmax [36]?
**A.** 74.4 µM

**Q.** What about the half-life [37] of the same compound?
**A.** 1.5 h

**Q.** And the Activity [38]?
**A.** 0%
